Patent publication US9115083B2 (Simpson Biotech Co., Ltd, priority 2011, dated 2015)

Target: HCV NS3/4A protease (Hepatitis C virus genotype 1a (isolate H77) (HCV), UniProt P27958)
Experiment: HCV protease assay (fluorimetric, FRET substrate)
Type: biochemical
Settings: HCV NS3/4A protease, 30 min at 37° C., triplicate; read-out: IC50 against HCV protease
Source text: The HCV protease assay herein was applied to investigate the HCV-protease inhibitory activity of the prepared compounds as described above. The method of the HCV protease assay was described in D. T. Phuong, C. M. Ma, M. Hattori and J. S. Jin: Inhibitory Effects of Antrodins A-E from Antrodia cinnamomea and Their Metabolites on Hepatitis C Virus Protease. Phytotherapy Research, 23, 582-584, 2009. Two micro liters of a compound solution (using DMSO as solvent) was placed in 384 well micro plate, then 8 μl of HCV NS3/4A protease ([…]) was added to the well containing a sample and the plate was agitated. Finally, 10 μL of freshly prepared substrate (Ac-Asp-Glu-Dap(QXL™520)-Glu-Glu-Abu-COO-Ala-Ser-Cys(5-FAMsp)-NH2) (100× dilution of a DMSO stock solution) was added with sequential rotational shaking. The reaction mixture was incubated for 30 min at 37° C. The fluorimetric analyses were performed on an automated TECAN GENios plate reader with excitation wavelength at 485 nm and emission 530 nm. Each test compound was carried out in triplicate. The HCV—PR inhibition (%) was calculated by using the following equation: % inhibition=(Fvehicle control−[…])×100/Fvehicle control (Where F is the fluorescence value of vehicle control or of sample minus the fluorescence of the substrate control).

HCV NS3/4A protease, sequence (P27958 1027-1657): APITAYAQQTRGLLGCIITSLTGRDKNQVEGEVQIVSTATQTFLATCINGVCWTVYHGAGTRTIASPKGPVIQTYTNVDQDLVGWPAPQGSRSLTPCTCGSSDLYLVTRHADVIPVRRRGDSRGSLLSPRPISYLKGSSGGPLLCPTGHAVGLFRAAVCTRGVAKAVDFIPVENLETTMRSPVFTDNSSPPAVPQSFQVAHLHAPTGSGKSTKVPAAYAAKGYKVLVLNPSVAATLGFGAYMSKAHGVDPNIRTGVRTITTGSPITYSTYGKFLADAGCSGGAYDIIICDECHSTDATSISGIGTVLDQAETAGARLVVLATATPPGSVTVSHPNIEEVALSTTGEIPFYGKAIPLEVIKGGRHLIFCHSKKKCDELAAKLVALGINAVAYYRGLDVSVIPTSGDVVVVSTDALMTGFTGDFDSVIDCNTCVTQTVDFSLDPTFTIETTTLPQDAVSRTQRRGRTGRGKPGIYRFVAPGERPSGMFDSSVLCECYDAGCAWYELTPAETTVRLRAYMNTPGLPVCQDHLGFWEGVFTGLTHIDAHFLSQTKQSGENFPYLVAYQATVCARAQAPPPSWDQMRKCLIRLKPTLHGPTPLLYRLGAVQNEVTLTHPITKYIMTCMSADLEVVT
HCV NS3/4A protease, sequence (P27958 1658-1711 partner): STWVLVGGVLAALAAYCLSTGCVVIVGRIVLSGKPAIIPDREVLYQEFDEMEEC

SMILES	IC50
CC(C)CC1C(=O)N(C(Cc2ccccc2)C(=O)O)C(=O)C1c1ccc(O)cc1 (stereo not drawn) [Compound A11]	63 µM
CC(C)CC1C(=O)N(C(CC(C)C)C(=O)N[C@@H](Cc2ccccc2)C(=O)O)C(=O)C1c1ccc(O)cc1 (stereo partly drawn) [Compound A1-7]	27 µM
CSCCC(C(=O)O)N1C(=O)C(CC(C)C)=C(c2ccc(OCC=C(C)C)cc2)C1=O (stereo not drawn) [Compound A5, 2-(3-Isobutyl-4-(4-(3-methylbut-2-enyloxy)phenyl)-2,5-dioxo-2,5-dihydro-1H-pyrrol-1-yl)-4-(methylthio)butanoic acid]	21 µM
CC(C)=CCOc1ccc(C2=C(CC(C)C)C(=O)N(CC(=O)C(N)=O)C2=O)cc1 [KAnh-1]	153 µM
CC(C)CC1C(=O)C(C(c2ccccc2)C(O)C(=O)O)C(=O)C1c1ccc(O)cc1 (stereo not drawn) [KC-t]	73 µM
CC(C)=CCOc1ccc(C2=C(CC(C)C)C(=O)N(CCC(O)C(=O)O)C2=O)cc1 (stereo not drawn) [KB, 2-Hydroxy-4-(3-isobutyl-4-(4-(3-methylbut-2-enyloxy)phenyl)-2,5-dioxo-2,5-dihydro-1H-pyrrol-1-yl)butanoic acid]	15.6 µM
CCOC(=O)[C@H](Cc1ccccc1)NC(=O)C(=O)C(c1ccccc1)N1C(=O)C(CC(C)C)=C(c2ccc(OCC=C(C)C)cc2)C1=O (stereo partly drawn) [KC-1, Ethyl 2-(3-(3-isobutyl-4-(4-(3-methylbut-2-enyloxy)phenyl)-2,5-dioxo-2,5-dihydro-1H-pyrrol-1-yl)-2-oxo-3-phenylpropanamido)-3-phenylpropanoate]	> 100 µM
CC(C)=CCOc1ccc(C2=C(CC(C)C)C(=O)N(C(CC(C)C)C(=O)NC3CC3)C2=O)cc1 (stereo not drawn) [Compound A1-6, N-Cyclopropyl-2-(3-isobutyl-4-(4-(3-methylbut-2-enyloxy)phenyl)-2,5-dioxo-2,5-dihydro-1H-pyrrol-1-yl)-4-methylpentanamide]	> 200 µM
CC(C)=CCOc1ccc(C2=C(CC(C)C)C(=O)N(CCC(=O)C(N)=O)C2=O)cc1 [KBnh-1]	12.1 µM
CC(C)CC1C(=O)N(C(C)C(=O)O)C(=O)C1c1ccc(O)cc1 (stereo not drawn) [Compound A16]	170 µM
CC(C)CC1C(=O)N(C(C(=O)O)C(C)C)C(=O)C1c1ccc(O)cc1 (stereo not drawn) [Compound A15]	85 µM
CC(C)CC1C(=O)N(CCC(=O)C(=O)NC(Cc2ccccc2)C(=O)O)C(=O)C1c1ccc(O)cc1 (stereo not drawn) [KB-2]	100 µM
COC(=O)C(CO)NC(=O)C(CC(C)C)N1C(=O)C(CC(C)C)=C(c2ccc(OCC=C(C)C)cc2)C1=O (stereo not drawn) [Compound A1-3, Methyl 3-hydroxy-2-(2-(3-isobutyl-4-(4-(3-methylbut-2-enyloxy)-phenyl)-2,5-dioxo-2,5-dihydro-1H-pyrrol-1-yl)-4-methylpentanamido)-propanoate]	> 100 µM
CC(C)=CCOc1ccc(C2=C(CC(C)C)C(=O)N(CCC(=O)C(=O)NC(C)C(=O)OC(C)(C)C)C2=O)cc1 (stereo not drawn) [KB-1-2]	35.2 µM
CC(C)CC1C(=O)N(CCC(=O)C(N)=O)C(=O)C1c1ccc(O)cc1 (stereo not drawn) [KBnh-2]	7.4 µM
CC(C)CC1C(=O)N(C(CO)C(=O)O)C(=O)C1c1ccc(O)cc1 (stereo not drawn) [Compound A12]	25 µM
CC(C)=CCOc1ccc(C2=C(CC(C)C)C(=O)N(C(c3ccccc3)C(O)C(=O)O)C2=O)cc1 (stereo not drawn) [KC, 2-Hydroxy-3-(3-isobutyl-4-(4-(3-methylbut-2-enyloxy)phenyl)-2,5-dioxo-2,5-dihydro-1H-pyrrol-1-yl)-3-phenylpropanoic acid]	5 µM
CC(C)CC1C(=O)N(C(CCOCO)C(=O)O)C(=O)C1c1ccc(O)cc1 (stereo not drawn) [Compound A17]	105 µM
CC(C)=CCOc1ccc(C2=C(CC(C)C)C(=O)N(C(C(=O)O)C(C)C)C2=O)cc1 (stereo not drawn) [Compound A7, 2-(3-Isobutyl-4-(4-(3-methylbut-2-enyloxy)phenyl)-2,5-dioxo-2,5-dihydro-1H-pyrrol-1-yl)-3-methylbutanoic acid]	23.3 µM
COC(=O)[C@H](CC(C)C)NC(=O)C(Cc1ccccc1)N1C(=O)C(CC(C)C)=C(c2ccc(OCC=C(C)C)cc2)C1=O (stereo partly drawn) [Compound A2-1, Methyl 2-(2-(3-isobutyl-4-(4-(3-methylbut-2-enyloxy)phenyl)-2,5-dioxo-2,5-dihydro-1H-pyrrol-1-yl)-3-phenylpropanamido)-4-methylpentanoate]	> 100 µM
CC(C)CC1C(=O)N(C(Cc2ccccc2)C(=O)N[C@@H](Cc2ccccc2)C(=O)O)C(=O)C1c1ccc(O)cc1 (stereo partly drawn) [Compound A2-12]	192 µM

SMILES	IC50
CC(C)CC1C(=O)N(CC(C(=O)C(=O)NC(C)C(=O)O)c2ccccc2)C(=O)C1c1ccc(O)cc1 (stereo not drawn) [KC-4]	14.6 µM
CCOC(=O)[C@H](C)NC(=O)C(=O)C(c1ccccc1)N1C(=O)C(CC(C)C)=C(c2ccc(OCC=C(C)C)cc2)C1=O (stereo partly drawn) [KC-2, Ethyl 2-(3-(3-isobutyl-4-(4-(3-methylbut-2-enyloxy)phenyl)-2,5-dioxo-2,5-dihydro-1H-pyrrol-1-yl)-2-oxo-3-phenylpropanamido)propanoate]	> 100 µM
CC(C)=CCOc1ccc(C2=C(CC(C)C)C(=O)N(C(Cc3ccc(O)cc3)C(=O)O)C2=O)cc1 (stereo not drawn) [Compound A4, 3-(4-Hydroxyphenyl)-2-(3-isobutyl-4-(4-(3-methylbut-2-enyloxy)-phenyl)-2,5-dioxo-2,5-dihydro-1H-pyrrol-1-yl)propanoic acid]	16 µM
CC(C)CC1C(=O)N(CC(=O)C(=O)NC(C)C(=O)O)C(=O)C1c1ccc(O)cc1 (stereo not drawn) [KA-5]	70 µM
CC(C)CC1C(=O)N(C(CC(C)C)C(=O)N[C@@H](C)C(=O)O)C(=O)C1c1ccc(O)cc1 (stereo partly drawn) [Compound A1-10]	16 µM
CC(C)=CCOc1ccc(C2=C(CC(C)C)C(=O)N(CC(O)C(=O)O)C2=O)cc1 (stereo not drawn) [KA, 2-Hydroxy-3-(3-isobutyl-4-(4-(3-methylbut-2-enyloxy)phenyl)-2,5-dioxo-2,5-dihydro-1H-pyrrol-1-yl)propanoic acid]	8.7 µM
CC(C)=CCOc1ccc(C2=C(CC(C)C)C(=O)N(CC(=O)C(=O)NC(C)C(=O)OC(C)(C)C)C2=O)cc1 (stereo not drawn) [KA-5-2]	47.6 µM
CC(C)CC1C(=O)N(CC(C(=O)C(=O)NC(Cc2ccccc2)C(=O)O)c2ccccc2)C(=O)C1c1ccc(O)cc1 (stereo not drawn) [KC-5]	9 µM
CC(C)=CCOc1ccc(C2=C(CC(C)C)C(=O)N(C(CCC(=O)O)C(=O)O)C2=O)cc1 (stereo not drawn) [Compound A9, 2-(3-Isobutyl-4-(4-(3-methylbut-2-enyloxy)phenyl)-2,5-dioxo-2,5-dihydro-1H-pyrrol-1-yl)pentanedioic acid]	19 µM
CC(C)=CCOc1ccc(C2=C(CC(C)C)C(=O)N(C(C(=O)O)C(C)O)C2=O)cc1 (stereo not drawn) [Compound A6, 3-Hydroxy-2-(3-isobutyl-4-(4-(3-methylbut-2-enyloxy)phenyl)-2,5-dioxo-2,5-dihydro-1H-pyrrol-1-yl)butanoic acid]	18 µM
COC(=O)C1CCCN1C(=O)C(CC(C)C)N1C(=O)C(CC(C)C)=C(c2ccc(OCC=C(C)C)cc2)C1=O (stereo not drawn) [Compound A1-4]	> 100 µM
CC(C)CC1C(=O)N(C(CO)C(=O)N[C@@H](Cc2ccccc2)C(=O)O)C(=O)C1c1ccc(O)cc1 (stereo partly drawn) [Compound A3-16]	132 µM
CC(C)=CCOc1ccc(C2=C(CC(C)C)C(=O)N(CCC(=O)C(=O)NC(Cc3ccccc3)C(=O)OC(C)(C)C)C2=O)cc1 (stereo not drawn) [KB-2-2]	16.2 µM
CC(C)CC1C(=O)N(C(C(=O)C(N)=O)c2ccccc2)C(=O)C1c1ccc(O)cc1 (stereo not drawn) [KCnh-2]	1.4 µM
CC(C)=CCOc1ccc(C2=C(CC(C)C)C(=O)N(C(C)C(=O)O)C2=O)cc1 (stereo not drawn) [Compound A8, 2-(3-Isobutyl-4-(4-(3-methylbut-2-enyloxy)phenyl)-2,5-dioxo-2,5-dihydro-1H-pyrrol-1-yl)propanoic acid]	27 µM
CCOC(=O)C(Cc1ccccc1)NC(=O)C(Cc1ccccc1)N1C(=O)C(CC(C)C)=C(c2ccc(OCC=C(C)C)cc2)C1=O (stereo not drawn) [Compound A2-2, Ethyl 2-(2-(3-isobutyl-4-(4-(3-methylbut-2-enyloxy)phenyl)-2,5-dioxo-2,5-dihydro-1H-pyrrol-1-yl)-3-phenylpropanamido)-3-phenylpropanoate]	100 µM
CC(C)CC1C(=O)N(C(Cc2ccccc2)C(=O)N[C@@H](CC(C)C)C(=O)O)C(=O)C1c1ccc(O)cc1 (stereo partly drawn) [Compound A2-11]	120 µM
CC(C)=CCOc1ccc(C2=C(CC(C)C)C(=O)N(C(C(=O)C(N)=O)c3ccccc3)C2=O)cc1 (stereo not drawn) [KCnh-1]	1.95 µM
CCOC(=O)[C@H](Cc1ccc(O)cc1)NC(=O)C(Cc1ccccc1)N1C(=O)C(CC(C)C)=C(c2ccc(OCC=C(C)C)cc2)C1=O (stereo partly drawn) [Compound A2-3, Ethyl 3-(4-hydroxyphenyl)-2-(2-(3-isobutyl-4-(4-(3-methylbut-2-enyloxy)phenyl)-2,5-dioxo-2,5-dihydro-1H-pyrrol-1-yl)-3-phenylpropanamido)propanoate]	100 µM
CC(C)=CCOc1ccc(C2=C(CC(C)C)C(=O)N(CCC(=O)C(=O)NC3CC3)C2=O)cc1 [KB-1, N-Cyclopropyl-4-(3-isobutyl-4-(4-(3-methylbut-2-enyloxy)phenyl)-2,5-dioxo-2,5-dihydro-1H-pyrrol-1-yl)-2-oxobutanamide]	61.9 µM
CCOC(=O)C(Cc1ccc(O)cc1)NC(=O)C(CC(C)C)N1C(=O)C(CC(C)C)=C(c2ccc(OCC=C(C)C)cc2)C1=O (stereo not drawn) [Compound A1-2, Ethyl 3-(4-hydroxyphenyl)-2-(2-(3-isobutyl-4-(4-(3-methylbut-2-enyloxy)phenyl)-2,5-dioxo-2,5-dihydro-1H-1-yl)-4-methylpentanamido)propanoate]	> 100 µM
